Measured values from patent US20120184517A1, “TREATMENT OF DISEASES WITH ALTERED SMOOTH MUSCLE CONTRACTILITY” (priority 2009, published 2012).
≈ marks a conversion by molar mass, not a printed value. Entries after “also recorded” stand apart in the source; their conditions may differ.

How the values were obtained:
[1] = molecular target: glutamate-aspartate transporter (GLAST) (Homo sapiens, UniProt P43003); conditions: cited from earlier work
[2] = system: guinea pigs; conditions: 10-20 mg/kg/day×6 days; cited from earlier work
[3] = molecular target: T1, recombinant BK (mSlo1) (Mus musculus, UniProt Q08460); assay: Cell-free outside-out/inside-out patch single channel recordings from HEK cells; format: biochemical, murine
T1 construct: expressed in transfected cells
Procedure: Ca^2+ was maintained at 0 (virtual; actual <20 nM) through dialysis using a patch pipette.

[4] = molecular target: PKA (Homo sapiens, UniProt P17612); conditions: 20 μM; cited from earlier work
[5] = system: HDM-exposed mice; assay: House dust mite (HDM) sensitized asthma model
Procedure: House dust mite (HDM) is one of the most common aeroallergens and is implicated in allergy and asthma symptoms in ˜10% of the population (Johnson et al., “Continuous exposure to house dust mite elicits chronic airway inflammation and structural remodeling.” Am J Respir Crit Care Med 169:378-385 (2004)). Exposure to HDM extract elicits a severe and persistent eosinophilic airway inflammation. Mice were exposed to purified HDM extract (Greer Laboratories, Lenoir, N.C.) intranasally (25 μg of protein in 10 μl saline) for 5 days/week for 3 weeks as previously described (Id.). […] Changes in pressure, flow, and volume were recorded, and airway resistance was calculated from peak values after each challenge using a Buxco forced maneuvers system and restrained whole body plethysmography (rWBP; PLY3011 chamber, Buxco (BUXCO Electronics Inc., Troy, N.Y.)).

[6] = system: canine subarachnoid hemorrhage model; conditions: 5 μM injected into the cistera magna; cited from earlier work
[7] = system: mitochondria in intact cells; conditions: cited from earlier work
[8] = molecular target: c-Jun N-terminal kinase 1 α1 (JNK1 α1) (Homo sapiens, UniProt P45983); conditions: 20 μM; cited from earlier work
[9] = molecular target: casein kinase II (Homo sapiens, UniProt P68400); conditions: cited from earlier work
[10] = system: CD4+ and CD8+ human T lymphocyte; conditions: dose-dependent; cited from earlier work
[11] = cited from earlier work
[12] = molecular target: protein kinase A (PKA) (Homo sapiens, UniProt P17612); conditions: cited from earlier work
[13] = system: OVA-sensitized mice; assay: OVA-asthma model, single i.v. dose before airway resistance measurement; format: in vivo
Procedure: Groups of mice received an I.P. injection of OVA/Alum complex on days 0 and 7 and on alternate days 14-22, a 20 minute aerosol challenge of either PBS or 2% (w/v) OVA in PBS, using an ultrasonic nebulizer (FIG. 22A).

[14] = system: murine femoral arterial rings; format: cell-based
Procedure: Current was monitored with a ramp protocol; holding potential −60 mV, with ramp from −80 mV to +150 mV over 500 ms. […] Analysis was performed using tail analysis with normalization as previously described (Xia, et al., Multiple regulatory sites in large-conductance calcium-activated potassium channels. Nature, 2002. 418(6900):880-4). […] Identification of the BKCa channel was determined by conductance and inhibition by iberiotoxin and TEA. […] Murine femoral arterial rings were isolated and placed in a wire myograph. […] The figures shown are representative of 4 similar experiments. Error bars are standard error of the mean (SEM). Asterisk (*) indicates p<0.001.

T1 sequence (Q08460 whole entry): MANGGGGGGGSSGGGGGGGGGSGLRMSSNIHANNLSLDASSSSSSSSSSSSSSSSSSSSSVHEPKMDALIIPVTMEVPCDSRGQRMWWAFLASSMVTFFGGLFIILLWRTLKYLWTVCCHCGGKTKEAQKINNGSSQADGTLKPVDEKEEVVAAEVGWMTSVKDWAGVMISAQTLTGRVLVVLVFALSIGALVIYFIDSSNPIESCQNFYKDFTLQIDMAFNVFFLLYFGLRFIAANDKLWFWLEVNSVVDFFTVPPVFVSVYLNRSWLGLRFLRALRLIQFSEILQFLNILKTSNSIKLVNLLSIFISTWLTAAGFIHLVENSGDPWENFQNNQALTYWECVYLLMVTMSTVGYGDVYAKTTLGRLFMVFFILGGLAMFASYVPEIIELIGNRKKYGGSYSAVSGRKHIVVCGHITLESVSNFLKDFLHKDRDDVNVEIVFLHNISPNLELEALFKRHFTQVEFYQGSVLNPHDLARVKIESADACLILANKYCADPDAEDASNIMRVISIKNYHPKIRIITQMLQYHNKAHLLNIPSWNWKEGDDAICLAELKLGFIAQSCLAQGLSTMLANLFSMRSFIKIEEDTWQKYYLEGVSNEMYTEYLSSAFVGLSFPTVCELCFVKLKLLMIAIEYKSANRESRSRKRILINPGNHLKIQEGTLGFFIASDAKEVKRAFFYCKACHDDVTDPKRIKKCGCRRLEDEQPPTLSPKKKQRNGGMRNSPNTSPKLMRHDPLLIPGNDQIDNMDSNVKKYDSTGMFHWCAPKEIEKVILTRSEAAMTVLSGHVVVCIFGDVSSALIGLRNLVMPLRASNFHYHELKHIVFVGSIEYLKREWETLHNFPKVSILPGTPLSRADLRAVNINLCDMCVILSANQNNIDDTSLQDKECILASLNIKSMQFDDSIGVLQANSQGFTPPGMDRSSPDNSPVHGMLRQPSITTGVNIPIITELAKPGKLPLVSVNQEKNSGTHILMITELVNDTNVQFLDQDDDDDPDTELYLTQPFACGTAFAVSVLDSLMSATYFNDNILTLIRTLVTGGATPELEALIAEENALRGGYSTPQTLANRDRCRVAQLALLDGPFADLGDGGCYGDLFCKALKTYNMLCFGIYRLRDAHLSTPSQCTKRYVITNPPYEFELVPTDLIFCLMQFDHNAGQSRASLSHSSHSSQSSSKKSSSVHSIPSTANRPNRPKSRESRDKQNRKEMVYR
Sequence of casein kinase II (P68400 whole entry): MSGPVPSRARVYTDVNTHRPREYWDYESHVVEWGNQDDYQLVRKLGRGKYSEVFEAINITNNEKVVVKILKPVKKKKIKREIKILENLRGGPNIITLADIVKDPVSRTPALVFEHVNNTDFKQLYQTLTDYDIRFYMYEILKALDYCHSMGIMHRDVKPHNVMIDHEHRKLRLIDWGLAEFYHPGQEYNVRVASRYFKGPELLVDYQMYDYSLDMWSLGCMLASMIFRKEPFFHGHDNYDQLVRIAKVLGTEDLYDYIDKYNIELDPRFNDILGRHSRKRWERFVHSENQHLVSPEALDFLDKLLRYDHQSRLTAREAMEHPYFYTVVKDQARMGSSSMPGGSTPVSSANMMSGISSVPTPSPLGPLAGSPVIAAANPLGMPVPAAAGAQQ
Sequence of c-Jun N-terminal kinase 1 α1 (JNK1 α1) (P45983 1-384 isoform P45983-2, species assumed): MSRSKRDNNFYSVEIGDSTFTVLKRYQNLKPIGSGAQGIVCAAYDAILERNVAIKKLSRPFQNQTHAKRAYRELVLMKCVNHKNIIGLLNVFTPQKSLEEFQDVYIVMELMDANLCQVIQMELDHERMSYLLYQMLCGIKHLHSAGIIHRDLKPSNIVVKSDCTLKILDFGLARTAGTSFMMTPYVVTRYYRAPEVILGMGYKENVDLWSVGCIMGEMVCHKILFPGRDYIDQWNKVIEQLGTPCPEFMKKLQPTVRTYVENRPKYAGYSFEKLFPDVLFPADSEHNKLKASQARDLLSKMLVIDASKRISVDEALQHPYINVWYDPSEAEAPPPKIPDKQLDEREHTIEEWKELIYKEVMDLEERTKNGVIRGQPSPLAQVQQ
Sequence of glutamate-aspartate transporter (GLAST) (P43003 whole entry, species assumed): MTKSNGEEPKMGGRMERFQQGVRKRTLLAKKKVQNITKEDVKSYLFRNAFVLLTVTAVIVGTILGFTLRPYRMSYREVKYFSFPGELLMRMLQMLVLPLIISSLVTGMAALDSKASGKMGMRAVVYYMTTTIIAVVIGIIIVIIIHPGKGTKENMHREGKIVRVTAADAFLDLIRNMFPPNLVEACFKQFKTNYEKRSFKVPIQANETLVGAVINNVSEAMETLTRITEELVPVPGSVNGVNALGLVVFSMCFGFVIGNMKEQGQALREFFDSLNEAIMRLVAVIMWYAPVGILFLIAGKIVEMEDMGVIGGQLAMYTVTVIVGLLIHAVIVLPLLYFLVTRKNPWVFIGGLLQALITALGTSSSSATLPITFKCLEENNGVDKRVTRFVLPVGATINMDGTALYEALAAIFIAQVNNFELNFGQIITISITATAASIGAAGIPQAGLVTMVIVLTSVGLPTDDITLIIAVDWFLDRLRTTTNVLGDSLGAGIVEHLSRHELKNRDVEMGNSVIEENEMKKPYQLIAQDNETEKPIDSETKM

For CC(=O)c1c(O)c(C)c(O)c(Cc2c(O)c3c(c(C(=O)/C=C/c4ccccc4)c2O)OC(C)(C)C=C3)c1O [rottlerin, 5,7-dihydroxy-2,2-dimethyl-6-(2,4,6-trihydroxy-3-methyl-5-acetylbenzyl)-8-cinnamoyl-I,2-chromene], the “capacity of GLAST” value [1] is listed as “decrease the capacity”, the fertility rate [2] is listed as “reduce the fertility rate” and the channel open probability ([3]; 0.5 μM rottlerin, outside-out patches from HEK cells, absence of ATP) is listed as “significant increase”. The “experiments in which activation was found” value ([3]; rottlerin 0.5 μM bath application, outside-out patch, +30 mV, n=18) was 100%, the channel conductance ([3]; rottlerin 0.5 μM, outside-out, 0 Ca2+) was “does not significantly change” and the inhibition [4] was 83%. The “adverse effect, mortality, morbidity” value ([5]; 5 μg/g intraperitoneal every other day) was “no significant adverse effect”, the “cellular infiltrate in the peribronchial and perivascular regions” value ([5]; HDM-exposed animals) was “significant reduction” and the airway resistance ([5]; HDM-sensitized mice, methacholine 25-50 mg/ml) was “marked decrease in their airway resistance”. The airway resistance ([5]; PBS-sensitized animals) was “no effect”, the cerebral vasospasm [6] was “inhibited the initial phase of cerebral vasospasm” and the mitochondrial uncoupling ([7]; 10 μM) was “uncouple mitochondria”. For the same compound, the ATP levels ([7]; PKC independent) was “reduce ATP levels”, the inhibition [8] was 51% and the IC50 [9] was 30 to 100 µM. The T lymphocyte proliferation [10] was “inhibits”, the “solubility in DMSO” value ([11]; DMSO) was 100 mM (≈ 51.7 mg/mL) and the solubility in ethanol ([11]; ethanol) was 2 mM (≈ 1.03 mg/mL). For the same compound, the IC50 [12] was 30 to 100 µM, the “β-agonist mediated relaxation of the airway” value ([13]; Rottlerin (5 μg/g) in combination with Isoproterenol (2.5 μg/g), tail vein) was “increased β-agonist mediated relaxation of the airway” and the “time to reduction of AHR” value ([13]; single I.V. administration) was ≤ 5 min. For the same compound, the “airway resistance (RL)” value ([13]; single dose 5 μg/g I.V. 5 minutes before measurement, OVA-sensitized mice) was “significant decrease in their RL; also recorded: significantly reduced airway resistance”, the “PE induced constriction of the vessel” value ([14]; rottlerin 0.5 μM (FIG. 7D legend)) was “significantly inhibited” and the “effect on phenylephrine mediated contraction” value ([14]; rottlerin 1 μM) was “no significant effect”. For the same compound, the “reduction of phenylephrine mediated contraction” value ([14]; rottlerin 4 μM) was “more than 50%”.
